According to ChEMBL document CHEMBL3507680, “University of Dundee, Gates Library screen for HepG2 cell viability”:

Assay: Human HepG2 cell viability assay in 384 well format
Type: toxicity, cell-based
Design: dose 125 nL, time 70.5 hour; cytotoxicity at 70.5 h: concentration not given beside the values
Conditions: HepG2 cells, read-out: Inhibition

| SMILES | cytotoxicity at 70.5 h |
| --- | --- |
| Cn1c2ccccc2c2ncn(CCN3CCOCC3)c(=O)c21 | 11.8% |
| CCOn1c(SC(C)C)nc2ccccc2c1=O | -8.12% |
| O=C(CN1CCN(C(=O)c2ccccc2)CC1)Nc1ncc(Br)cc1Br | -1.02% |
| CC(C)c1nnc(NC(=O)CCC(=O)NCC2CCCO2)s1 (stereo not drawn) | -12.5% |
| CCSc1nc2ccccc2c(=O)n1OCC(=O)OC | -8.5% |
| O=C(CN1CCOCC1)Nc1ncc(Br)cc1Br | -5.32% |
| COCCCN(Cc1ccccn1)S(=O)(=O)Cc1ccccc1 | -18.4% |
| Cn1c(CC(=O)O)c(Sc2ccccc2)c2ccccc21 | -0.644% |
| COc1ccc2c(c1)[nH]c1c(N(C)CC3OCCO3)ncnc12 | 7.79% |
| CCSc1nnc(CCNC(=O)OC(C)(C)C)o1 | 13% |
| COc1cccc(-c2nc(CC(=O)NC3(C)CCS(=O)(=O)C3)cs2)c1 (stereo not drawn) | -8.05% |
| O=C(O)CCNC(=O)N1CCc2c([nH]c3ccc(Cl)cc23)C1 | -6.59% |
| CCOC(=O)COc1nc(CC(C)C)c2c(c1C#N)CCC2 | 1.02% |
| C[C@@H](CO)NC(=O)c1ccc2nc(NS(C)(=O)=O)sc2c1 | -2.43% |
| COc1ccc(-c2nc(C#N)c(N(C)C)o2)cc1S(=O)(=O)N1CCCC1 | 14.1% |
| Cc1ccc(NC(=O)CC2NC(N3CCc4ccccc43)=NC2=O)cc1 (stereo not drawn) | -7.26% |
| O=C(c1ccccc1)N(CC1CC1)c1cccnc1 | -1.58% |
| O=C(c1nc(Cc2c[nH]c3ccccc23)no1)N1CCOCC1 | -3.8% |
| O=C(C1CC=CC1)N1CC[C@@H]2O[C@@H](COCC3CCOCC3)CC[C@@H]21 | 6.54% |
| O=C([C@H]1CCS(=O)(=O)[C@@H]2CN(Cc3ccc(F)cc3)C[C@H]12)N1CCCC1 | -4.67% |
| O=C(C1CC=CC1)N1CC[C@@H]2O[C@H](COCC3CCOCC3)CC[C@@H]21 | -6.77% |
| CCSc1nnc([C@@H](N)CC(C)C)o1 | -7.55% |

| SMILES | cytotoxicity at 70.5 h |
| --- | --- |
| Cc1cccc(CS(=O)(=O)c2nnc([C@@H](N)Cc3ccccc3)o2)c1 | 12.4% |
| CCOC(=O)CSc1nnc([C@@H](N)C(C)CC)o1 (stereo partly drawn) | -9.94% |
| CCOC(=O)CSc1nnc([C@@H](N)C(C)C)o1 | -7.09% |
| CCOC(=O)CSc1nnc([C@@H](N)CC(C)C)o1 | -6.75% |
| Cc1ccc(C(CCNCCCN(C)C)C2CCOC(C)(C)C2)cc1 (stereo not drawn) | 30.6% |
| Cc1cnc(N2CCCC3(CCCN3CC(=O)N(C)C)C2)nc1 (stereo not drawn) | 12.8% |
| O=C(NC1CCC1)[C@H]1CCS(=O)(=O)[C@@H]2CN(CCc3ccccc3)C[C@H]12 | 0.419% |
| CN(C)C(=O)CN1CCCC12CCCN(c1ncc(F)cn1)C2 (stereo not drawn) | -4.71% |
| Cc1noc(C)c1CN1CCc2ncc(Cn3cccn3)n2CC1 | -5.78% |
| Cn1cc(C(=O)N2CC[C@@H]3[C@@H]2CCN3c2ncc(F)cn2)cn1 | -5.7% |
| CN1CCN(c2ccc3ccc(C(=O)N4CCCCO4)cn23)CC1 | -6.94% |
| COCCN1CCC2(CC1)CC1(CCN(S(C)(=O)=O)CC1)N(C)C2=O | -7.2% |
| CCCS(=O)(=O)N1C[C@@H]2COC[C@]2(CN2CCOCC2)C1 | -10.5% |
| CCc1ccc2c(C3CN(CC4CCC4)C3)ncn2c1 | -6.64% |
| O=C(c1cocn1)N1C[C@@H]2CN(Cc3ccco3)CCO[C@@H]2C1 | -9.1% |
| c1cnc(N2CC[C@@H](N3CCOCC3)[C@@H]2Cc2ccncc2)nc1 | 11.8% |
| Fc1cnc(N2CC[C@@H](N3CCOCC3)[C@@H]2Cc2cccnc2)nc1 | 9.63% |
| Cc1cnc(N2CC[C@@H](N3CCOCC3)[C@@H]2Cc2ccncc2)nc1 | -1.98% |
| CCN(CC)Cc1cnc2n1CCN(Cc1c(C)noc1C)CC2 | 5.41% |
| O=C(O)c1cc2c(nc1-c1cncnc1)CCN(C1CCOC1)CC2 (stereo not drawn) | 11.3% |
| Cc1noc(C)c1CN1CCn2c(CN3CCN(C)CC3)cnc2C1 | -14.6% |
